Patent US12174172B2, “Method for evaluating the efficacy of a composition in reducing the effects of cancer therapeutics on skin” (Johnson & Johnson Consumer Inc., priority 2019, dated 2024)
Entries after “also recorded” stand apart in the source; their conditions may differ. Marks after values point to notes of the source that are not given here.

Columns and labels:
desmoglein-1 (DSG1) = experiment: 3D micro-epidermis model (EpiScreen): desmoglein-1 immunostaining; assay type: cell-based, human
Protocol: To assess the effects of such therapy molecules on the epidermis, keratinocytes were grown in the presence of kinase inhibitors during 3 days with high calcium concentration to induce keratinocyte differentiation and generate a 3D-stratified differentiated epidermis. Drug impact on the epidermis development was assessed via different keratinocyte markers including: • Ki-67, an universally expressed protein among proliferating cells and absent in the quiescent cells; • Filaggrin, a filament-associated protein that binds to keratin fibers and is a marker of terminal differentiation; • Desmoglein-1, a component of desmosomes and differentiation marker expressed in all epidermal layer above the basal layer; and • Involucrin, an early differentiation marker expressed in the spinous and granular layers and a protein precursor of the epidermal cornified envelope.
Human epidermal keratinocytes cells (HPEKs) from a juvenile donor (CellnTec, Switzerland) are cultured in flasks in proliferation medium. Keratinocytes are seeded at passage 6 into EpiScreen™ (Abzena, Cambridge, UK) plates containing collagen 1 coated disc micropatterns (CYTOO, Grenoble, France). Four hours later, unattached cells are washed off and a high calcium medium is added to induce keratinocytes differentiation. The day after, keratinocytes are treated with screening compounds, and Trichostatin A is added at 0.3 μM as an internal positive control. After three days of treatment, micro-epidermises are fixed with a formalin solution 10% for 30 minutes, then permeabilized with 0.1% Triton. Several immunostainings are performed: actin (Acti-Stain 555, PHDH1, Cytoskeleton), nuclei (Hoechst, H3570, Invitrogen), and one biomarker of interest per well either anti-involucrin (HPA055211, Sigma), anti-filaggrin (HPA030189, Sigma) or anti-desmoglein-1 (HPA022128, Sigma). Antibodies are added overnight at 4° C. before staining with secondary antibody, anti-rabbit 488 (711-545-152, Jackson) for 2 hours at room temperature.
Images of each well are acquired with the Operetta HCS platform (Perkin Elmer, Waltham, MA, USA) using a ×10 objective in confocal mode in eight z-planes from 2 μm to 44 μm in steps of 6 μm in each of the 3 channels: actin, nuclei, and one biomarker of interest. The first step of the image analysis consists in detecting micro-epidermis structures on the first z-plane by segmenting the actin staining. Micro-epidermis structures are validated based on several area and roundness min and max criteria. Then, the area of each biomarker staining is measured inside the valid micro-epidermis masks through each z-plane. For all homogeneous biomarker staining, their intensity through the different planes is measured.
The actin network of each micro-epidermis is analyzed in each z-plane in order to determine the average 3D structure edges. The biomarker intensity is measured in each z-plane for each structure, and then averaged with the other results generated in the same well. Based on the data generated in the two previous steps, an average 3D reconstruction image is generated. It consists of a meshwork that delimits the structure edges, and a color scaled volume that corresponds to the biomarkers distribution and expression.
The effect of 8 oncology molecules, selected from first generation EGFRi and pan-kinase inhibitors which mostly target VEGFR and second and third generation therapies targeting main mutations relating to first generation treatment resistance, were assessed in vitro using a 3D micro-epidermis model. The drug incubation concentrations (3, 10, 30, 100 nM) were selected to reflect the clinically relevant (unbound) drug exposures (Table 2). The drug impact was assessed by analysis of tissue size and keratinocyte proliferation using Ki-67 staining and keratinocyte differentiation using filaggrin, desmoglein-1 and involucrin staining. […]

[1] = system: SkinEthic Reconstructed Human Epidermis (RHE); experiment: Skin barrier function: trans-epidermal water loss (TEWL) on reconstructed human epidermis; assay type: cell-based; details: day 7; SDS 0.5% topical; afatinib 100 nM in the media
Protocol: The effect of drugs on the skin barrier function was assessed by measuring trans-epidermal water loss (TEWL) rates on SkinEthicTM Reconstructed Human Epidermis (RHE) model (Episkin, Lyon, France) using Tewitro® TW 24 (Courage+Khazaka electronic GmbH, Köln, Germany). This instrument allows 24 simultaneous measurements on RHE. TEWL was analyzed at 33° C. in an incubator. […] Petrolatum, a highly hydrophobic hydrocarbon, water-repelling and insoluble in water was used to block water evaporation at the RHE surface (negative control). […] DMSO was used in the same proportion in the vehicle. SkinEthicTM RHE (Episkin, Lyon, France), is an in vitro reconstructed human epidermis from normal human keratinocytes cultured on an inert polycarbonate filter at the air-liquid interface, in a chemically defined medium. This model exists at different stages of maturity. This model is histologically similar to in vivo human epidermis. See […].com/SkinEthic%20RHE. The Tewitro® TW 24 is a device that measures water evaporation from cultured tissue sets (wells in a plate with medium) in up to 24 wells simultaneously. See https://www.courage-[…].

filaggrin (FLG) = experiment: 3D micro-epidermis model (EpiScreen): filaggrin immunostaining; assay type: cell-based, human;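 note: human primary epidermal keratinocytes differentiated in high calcium into 3D micro-epidermises, compound-treated for three days, imaged by confocal high-content microscopy, filaggrin staining intensity quantified within actin-segmented structures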
Keratinocytes = experiment: WST-8 viability and proliferation assay; assay type: cell-based, human; details: keratinocytes exposed for 24 h, relative to vehicle (FIG. 5a)
Source text: The Water-Soluble Tetrazolium Salts (WST-8) Colorimetric Cell Proliferation Kit (Promokine, Heidelberg, Germany) provides a rapid and sensitive way to quantify proliferation and cell viability. Cell proliferation causes an increase in the amount of formazan dye formed that can be quantified by measuring the absorbance of the dye solution at […] using a microtiter plate reader (Perkin Elmer EnVision 2103 Multilabel Reader, Waltham, MA, USA). Cellular proliferation induces an increase in the activity of mitochondrial dehydrogenases, which cleaves the tetrazolium salt […] into formazan. 15,000 Keratinocytes per well were seeded on 96-well plate, once confluence reach, drug concentration used were +/−½ log of the plasmatic concentration. 10 μl of Colorimetric Cell Viability Kit is added and completed with 360 μl of culture media, results were read after 4 h at 450 nm to determine cell viability. Results were obtained with 6 donors of keratinocytes in 2 experiments

[2] = cited from earlier work

CN(C)C/C=C/C(=O)Nc1cc2c(Nc3ccc(F)c(Cl)c3)ncnc2cc1O[C@H]1CCOC1 [Afatinib]
DSG 3 nM (desmoglein-1 (DSG1); 3 nM, supplementary data): 38%
DSG 30 nM (desmoglein-1 (DSG1); 30 nM, supplementary data): 87%
activation at 0.01 µM (desmoglein-1 (DSG1); Homo sapiens, 72 h, 10 nM, supplementary data, read-out: DSG 10 nM): 67%
DSG-1 expression (desmoglein-1 (DSG1); Table 1 summary): Increased
desmoglein-1 expression (desmoglein-1 (DSG1); concentration (afatinib 3, 10, 30 nM; pan-kinase inhibitors 100 nM)): significantly increased; also recorded: increased in a dose-dependent manner
increase of the TEWL rate [1]: no significant change
FLG 3 nM (filaggrin (FLG); 3 nM, supplementary data): 4%
FLG 30 nM (filaggrin (FLG); 30 nM, supplementary data): 19%
activation at 0.01 µM (filaggrin (FLG); Homo sapiens, 72 h, 10 nM, supplementary data, two runs, read-out: FLG 10 nM): 12%
FLG expression (filaggrin (FLG); Table 1 summary): Increased
filaggrin expression (filaggrin (FLG); concentration (afatinib 10 and 30 nM; pan-kinase inhibitors 100 nM)): significantly increased; also recorded: increased in a dose-dependent manner
cell viability (Keratinocytes): decreases; also recorded: significant effect
Cmax ([2]; maximal plasma concentration after a single daily-recommended dose, human): 0.032 µM
Unbound concentration ([2]; unbound plasma concentration, identified or calculated from Cmax and unbound fraction): 0.0016 µM
Unbound fraction ([2]; unbound to plasma protein): 5%*
